Residues, ends and D or L forms follow the SMILES beside them. No end group written: not given here.
What was measured:
Format in all cases: cell-based
GPR1 [1] = biological target: T1, GPR1 (Homo sapiens, UniProt P46091); test: β-arrestin recruitment (PathHunter); conditions: receptor GPR1, mean, SEM and n (2-3); for EC50: read-out: b-arrestin recruitment assays (PathHunter) pEC50 (converted)
T1 sequence (P46091 1-355): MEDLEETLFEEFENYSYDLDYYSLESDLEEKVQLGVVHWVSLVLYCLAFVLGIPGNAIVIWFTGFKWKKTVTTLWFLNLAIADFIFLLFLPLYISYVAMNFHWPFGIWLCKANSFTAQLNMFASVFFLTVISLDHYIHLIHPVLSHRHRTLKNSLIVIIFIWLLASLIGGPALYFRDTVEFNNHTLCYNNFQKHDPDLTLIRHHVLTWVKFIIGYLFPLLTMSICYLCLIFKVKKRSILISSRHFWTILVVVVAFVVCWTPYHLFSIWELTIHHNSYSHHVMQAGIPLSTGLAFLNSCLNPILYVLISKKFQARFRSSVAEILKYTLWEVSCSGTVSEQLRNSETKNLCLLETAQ
Experimental: PathHunter eXpress Assays (DiscoverX) were performed in 384-well format according to the manufacturer’s recommendations. GPR1 cells were incubated with peptides for 90 min and luminescence measured using an EnSpire 2300 Multimode plate reader (PerkinElmer).

GPR1 [2] = biological target: T1, GPR1; test: β-arrestin recruitment (Tango), validation; set-up: host or cells: HTLA cells (HEK293-derived); conditions: receptor GPR1, mean, SEM and n (2-3); for EC50: read-out: b-arrestin recruitment assays (Tango) pEC50 (converted)
BB3 = biological target: T2, BB3 (Homo sapiens, UniProt P32247); test: IP1 accumulation (Gq/11), HTRF; conditions: receptor BB3; mean, SEM and n (2-4); read-out: IP1 accumulation assays pEC50 (converted)
T2 construct: hIL-2Ra signal peptide (N); expressed in transfected cells
T2 sequence (P32247 2-399 limits assumed): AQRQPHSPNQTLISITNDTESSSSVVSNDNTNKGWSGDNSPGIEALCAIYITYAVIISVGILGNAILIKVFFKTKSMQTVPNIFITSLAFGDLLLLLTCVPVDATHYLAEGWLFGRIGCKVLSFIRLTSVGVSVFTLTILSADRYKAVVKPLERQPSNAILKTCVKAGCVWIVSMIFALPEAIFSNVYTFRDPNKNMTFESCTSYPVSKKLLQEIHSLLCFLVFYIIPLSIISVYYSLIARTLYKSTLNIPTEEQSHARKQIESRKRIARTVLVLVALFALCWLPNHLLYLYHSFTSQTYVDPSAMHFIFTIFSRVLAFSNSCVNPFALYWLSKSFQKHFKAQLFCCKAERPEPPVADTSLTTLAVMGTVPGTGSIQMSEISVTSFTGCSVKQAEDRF

Molecule | EC50 (GPR1 [1]) [nM] | EC50 (GPR1 [2]) [nM] | b-arrestin recruitment assays (PathHunter) Emax (fold change) (GPR1 [1]) | b-arrestin recruitment assays (Tango) Emax (fold change) (GPR1 [2]) | EC50 (BB3) [nM]
CC(C)C[C@H](NC(=O)[C@H](CCCNC(=N)N)NC(=O)[C@H](CC(=O)O)NC(=O)[C@H](CC(C)C)NC(=O)[C@@H]1CCCN1C(=O)[C@H](CO)NC(=O)CNC(=O)[C@H](Cc1ccccc1)NC(=O)CNC(=O)[C@H](CO)NC(=O)[C@H](Cc1ccccc1)NC(=O)[C@@H](N)CO)C(=O)N[C@@H](CO)C(=O)N[C@@H](C)C(=O)NCC(=O)N[C@@H](CO)C(=O)N[C@H](C(=O)N[C@@H](CC(=O)O)C(=O)N[C@@H](Cc1c[nH]cn1)C(=O)N[C@@H](CCCCN)C(N)=O)C(C)C [Peptide 141.1] (H-SFSGFGSPLDRLSAGSVDHK-NH2) | 14100 | 14500 |  |  | 
CC(C)C[C@H](NC(=O)[C@H](CCCNC(=N)N)NC(=O)[C@H](CC(=O)O)NC(=O)[C@H](CC(C)C)NC(=O)[C@@H]1CCCN1C(=O)[C@H](CO)NC(=O)CNC(=O)[C@H](Cc1ccccc1)NC(=O)CNC(=O)[C@H](CO)NC(=O)[C@H](Cc1ccccc1)NC(=O)[C@H](CO)NC(=O)[C@H](CCCNC(=N)N)NC(=O)[C@@H](N)CCCCN)C(=O)N[C@@H](CO)C(=O)N[C@@H](C)C(=O)NCC(=O)N[C@@H](CO)C(=O)N[C@H](C(=O)N[C@@H](CC(=O)O)C(=O)N[C@@H](Cc1c[nH]cn1)C(=O)N[C@@H](CCCCN)C(=O)NCC(=O)N[C@@H](CCCCN)C(=O)N[C@@H](CCC(N)=O)C(=O)O)C(C)C [Peptide 141.2] (H-KRSFSGFGSPLDRLSAGSVDHKGKQ-OH) | 1170 | 2630 |  |  | 
CC(C)C[C@H](NC(=O)[C@H](CCCNC(=N)N)NC(=O)[C@H](CC(=O)O)NC(=O)[C@H](CC(C)C)NC(=O)[C@@H]1CCCN1C(=O)[C@H](CO)NC(=O)CNC(=O)[C@H](Cc1ccccc1)NC(=O)CNC(=O)[C@H](CO)NC(=O)[C@H](Cc1ccccc1)NC(=O)[C@H](CO)NC(=O)[C@H](CCCNC(=N)N)NC(=O)[C@@H](N)CCCCN)C(=O)N[C@@H](CO)C(=O)N[C@@H](C)C(=O)NCC(=O)N[C@@H](CO)C(=O)N[C@H](C(=O)N[C@@H](CC(=O)O)C(=O)N[C@@H](Cc1c[nH]cn1)C(=O)N[C@@H](CCCCN)C(=O)NCC(=O)N[C@@H](CCCCN)C(=O)N[C@@H](CCC(N)=O)C(=O)N[C@@H](CCCNC(=N)N)C(=O)N[C@@H](CCCCN)C(=O)N[C@H](C(=O)N[C@H](C(=O)N[C@@H](CC(=O)O)C(=O)N[C@@H](Cc1c[nH]cn1)C(=O)N1CCC[C@H]1C(=O)O)C(C)C)C(C)C)C(C)C [Peptide 141.3] (H-KRSFSGFGSPLDRLSAGSVDHKGKQRKVVDHP-OH) | 550 | 2630 |  |  | 
CC(C)C[C@H](NC(=O)[C@H](CCCNC(=N)N)NC(=O)[C@H](CC(=O)O)NC(=O)[C@H](CC(C)C)NC(=O)[C@@H]1CCCN1C(=O)[C@H](CO)NC(=O)CNC(=O)[C@H](Cc1ccccc1)NC(=O)CNC(=O)[C@H](CO)NC(=O)[C@H](Cc1ccccc1)NC(=O)[C@@H](N)CO)C(=O)N[C@@H](CO)C(=O)N[C@@H](C)C(=O)NCC(=O)N[C@@H](CO)C(=O)N[C@H](C(=O)N[C@@H](CC(=O)O)C(=O)N[C@@H](Cc1c[nH]cn1)C(=O)N[C@@H](CCCCN)C(=O)NCC(=O)N[C@@H](CCCCN)C(=O)N[C@@H](CCC(N)=O)C(=O)O)C(C)C [Peptide 141.5] (H-SFSGFGSPLDRLSAGSVDHKGKQ-OH) | 20900 | 16200 | 6.2 | 13.6 | 
CC(C)C[C@H](NC(=O)[C@H](CCCNC(=N)N)NC(=O)[C@H](CC(=O)O)NC(=O)[C@H](CC(C)C)NC(=O)[C@@H]1CCCN1C(=O)[C@H](CO)NC(=O)CNC(=O)[C@H](Cc1ccccc1)NC(=O)CNC(=O)[C@H](CO)NC(=O)[C@H](Cc1ccccc1)NC(=O)[C@@H](N)CO)C(=O)N[C@@H](CO)C(=O)N[C@@H](C)C(=O)NCC(=O)N[C@@H](CO)C(=O)N[C@H](C(=O)N[C@@H](CC(=O)O)C(=O)N[C@@H](Cc1c[nH]cn1)C(=O)N[C@@H](CCCCN)C(=O)NCC(=O)N[C@@H](CCCCN)C(=O)N[C@@H](CCC(N)=O)C(=O)N[C@@H](CCCNC(=N)N)C(=O)N[C@@H](CCCCN)C(=O)N[C@H](C(=O)N[C@H](C(=O)N[C@@H](CC(=O)O)C(=O)N[C@@H](Cc1c[nH]cn1)C(=O)N1CCC[C@H]1C(=O)O)C(C)C)C(C)C)C(C)C [Peptide 141.6] (H-SFSGFGSPLDRLSAGSVDHKGKQRKVVDHP-OH) | 3160 | 16600 |  |  | 
CSCC[C@H](NC(=O)[C@H](CCCCN)NC(=O)[C@@H](NC(=O)[C@H](CC(C)C)NC(=O)[C@@H](NC(=O)[C@@H](NC(=O)CNC(=O)CNC(=O)CNC(=O)[C@H](C)NC(=O)[C@@H]1CCCN1C(=O)[C@H](CC(C)C)NC(=O)[C@@H]1CCCN1C(=O)[C@@H](N)C(C)C)[C@@H](C)O)C(C)C)[C@@H](C)O)C(=O)N[C@@H](Cc1ccc(O)cc1)C(=O)N1CCC[C@H]1C(=O)N[C@@H](CCCNC(=N)N)C(=O)O [Peptide 167.2] (H-VPLPAGGGTVLTKMYPR-OH) | 2290 | 3020 |  |  | 525
KRSFSGFGSPLDRLSAGSVDHKGKQRKVVDHPKRRFGIPMDRI [Peptide 141.4] | 39.8 | 10200 |  |  | 
SFSGFGSPLDRLSAGSVDHKGKQRKVVDHPKRRFGIPMDRI-NH2 [Peptide 141.7] | 575 | 26900 |  |  | 

The remaining lines, values ahead:

EC50 (GPR1 [1]) [nM] | EC50 (GPR1 [2]) [nM] | b-arrestin recruitment assays (PathHunter) Emax (fold change) (GPR1 [1]) | b-arrestin recruitment assays (Tango) Emax (fold change) (GPR1 [2]) | EC50 (BB3) [nM] | Molecule
1.45 | 8510 |  |  |  | CSCC[C@H](NC(=O)[C@H](Cc1ccc(O)cc1)NC(=O)[C@@H](N)CC(=O)O)C(=O)NCC(=O)N[C@@H](Cc1c[nH]c2ccccc12)C(=O)N[C@@H](CCSC)C(=O)N[C@@H](CC(=O)O)C(=O)N[C@@H](Cc1ccccc1)C(N)=O [Peptide 194.1]
0.049 | 0.00191 |  |  |  | C[C@H](NC(=O)[C@@H](N)CCCCN)C(=O)N1CCC[C@H]1C(=O)N[C@@H](CO)C(N)=O [Peptide 194.3] (H-KAPS-NH2)
0.224 | 93.3 |  |  |  | CC[C@H](C)[C@H](NC(=O)[C@H](CCCNC(=N)N)NC(=O)[C@H](Cc1c[nH]cn1)NC(=O)[C@H](CO)NC(=O)[C@@H]1CCCN1C(=O)[C@H](CC(=O)O)NC(=O)[C@H](CC(C)C)NC(=O)[C@H](CC(N)=O)NC(=O)[C@H](CCC(N)=O)NC(=O)[C@H](CC(C)C)NC(=O)[C@H](CC(N)=O)NC(=O)[C@H](CCCCN)NC(=O)[C@@H](NC(=O)[C@@H](NC(=O)[C@H](CO)NC(=O)[C@H](CCSC)NC(=O)[C@H](CCCNC(=N)N)NC(=O)CNC(=O)[C@H](CO)NC(=O)[C@@H]1CCCN1C(=O)[C@H](C)NC(=O)[C@@H](N)CCCCN)[C@@H](C)CC)C(C)C)C(=O)N[C@@H](CO)C(=O)N[C@@H](CC(=O)O)C(=O)N[C@@H](CCCNC(=N)N)C(=O)N[C@@H](CC(=O)O)C(=O)N[C@@H](Cc1ccc(O)cc1)C(=O)N[C@@H](CCSC)C(=O)NCC(=O)O [Peptide 194.4] (H-KAPSGRMSIVKNLQNLDPSHRISDRDYMG-OH)
0.135 | 22.9 |  |  |  | CC[C@H](C)[C@H](NC(=O)[C@H](CCCNC(=N)N)NC(=O)[C@H](Cc1c[nH]cn1)NC(=O)[C@H](CO)NC(=O)[C@@H]1CCCN1C(=O)[C@H](CC(=O)O)NC(=O)[C@H](CC(C)C)NC(=O)[C@H](CC(N)=O)NC(=O)[C@H](CCC(N)=O)NC(=O)[C@H](CC(C)C)NC(=O)[C@H](CC(N)=O)NC(=O)[C@H](CCCCN)NC(=O)[C@@H](NC(=O)[C@@H](NC(=O)[C@H](CO)NC(=O)[C@H](CCSC)NC(=O)[C@H](CCCNC(=N)N)NC(=O)CNC(=O)[C@H](CO)NC(=O)[C@@H]1CCCN1C(=O)[C@H](C)NC(=O)[C@@H](N)CCCCN)[C@@H](C)CC)C(C)C)C(=O)N[C@@H](CO)C(=O)N[C@@H](CC(=O)O)C(=O)N[C@@H](CCCNC(=N)N)C(=O)O [Peptide 194.5] (H-KAPSGRMSIVKNLQNLDPSHRISDR-OH)
28200 | 75.9 | 4.0 | 2.0 |  | KAPSGRMSIVKNLQNLDPSHRISDRDYMGWMDFGRRSAEEYEYPS [Peptide 194.6]
